Test results published in patent US8785460B2, “Tricyclic compounds and use thereof” (Takeda Pharmaceutical Company Limited, priority 2008, dated 2014).

What was measured:
human CRF1 receptor = biological target: T1, human CRF1 receptor (Homo sapiens, UniProt P34998); test: Measurement of CRF Binding Inhibitory Rate (receptor binding experiment with 125I-CRF); conditions: human CRF1 receptor expressing CHO cellular membrane fraction, 50 pM 125I-CRF, room temperature 1.5 hr, 0.05 nM to 10 μM of compound; read-out: IC50 values (CRF binding inhibition)
T1 construct: expressed in transfected cells; host or cells: CHO cells (membrane fraction)
T1 sequence (P34998 24-415): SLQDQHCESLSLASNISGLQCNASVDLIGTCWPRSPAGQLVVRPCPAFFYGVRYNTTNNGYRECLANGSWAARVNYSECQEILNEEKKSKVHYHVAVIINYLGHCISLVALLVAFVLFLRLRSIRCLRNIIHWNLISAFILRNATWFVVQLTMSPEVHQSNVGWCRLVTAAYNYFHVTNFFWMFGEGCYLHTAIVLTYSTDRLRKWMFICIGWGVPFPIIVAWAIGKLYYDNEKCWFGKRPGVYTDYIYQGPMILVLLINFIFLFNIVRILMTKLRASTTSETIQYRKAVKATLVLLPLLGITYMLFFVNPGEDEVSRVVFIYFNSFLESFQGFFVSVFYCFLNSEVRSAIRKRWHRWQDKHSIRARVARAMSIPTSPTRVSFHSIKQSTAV

Row | Structure (SMILES) | IC50 (human CRF1 receptor) [µM] | melting point [°C]
1 | Cc1nc(N(C)C)ccc1N1CCCn2c1nc1c(Cl)ccc(C(OC(F)F)C(F)(F)F)c12 (centres unmarked) [Example 298, 5-{9-Chloro-6-[1-(difluoromethoxy)-2,2,2-trifluoroethyl]-3,4-dihydropyrimido[1,2-a]benzimidazol-1(2H)-yl}-N,N,6-trimethylpyridin-2-amine] | < 1 | 233 to 235
2 | CCNC(CC)c1ccc(Cl)c2nc3n(c12)CCCN3c1ccc(Cl)cc1Cl (centres unmarked) [Example 458, 1-[9-Chloro-1-(2,4-dichlorophenyl)-1,2,3,4-tetrahydropyrimido[1,2-a]benzimidazol-6-yl]-N-ethylpropan-1-amine] | < 1 | 124 to 127
3 | CCC(CC)c1ccc(Cl)c2nc3n(c12)CCCCN3c1cnc(N(C)C)cc1C [Example 25, 5-[10-Chloro-7-(1-ethylpropyl)-2,3,4,5-tetrahydro-1H-[1,3]diazepino[1,2-a]benzimidazol-1-yl]-N,N,4-trimethylpyridin-2-amine] | < 1 | 156 to 157
4 | CCOC(CC)c1ccc(Cl)c2nc3n(c12)CCCN3c1ccc(Cl)cc1Cl (centres unmarked) [Example 116, 9-Chloro-1-(2,4-dichlorophenyl)-6-(1-ethoxypropyl)-1,2,3,4-tetrahydropyrimido[1,2-a]benzimidazole] | < 1 | 108 to 110
5 | COC(c1cccc2nc3n(c12)CCCN3c1ccc(Cl)cc1Cl)C1CC1 (centres unmarked) [Example 200, 6-[Cyclopropyl(methoxy)methyl]-1-(2,4-dichlorophenyl)-1,2,3,4-tetrahydropyrimido[1,2-a]benzimidazole] | < 1 | 118 to 119
6 | CCC(CC)c1ccc(Cl)c2nc3n(c12)CCCCN3c1cnc(N2CCCC2)cc1C [Example 29, 10-Chloro-7-(1-ethylpropyl)-1-(4-methyl-6-pyrrolidin-1-ylpyridin-3-yl)-2,3,4,5-tetrahydro-1H-[1,3]diazepino[1,2-a]benzimidazole] | < 1 | 160 to 161
7 | CCC(CC)c1ccc(Cl)c2nc3n(c12)CCCCN3c1ccc(N(C)C)cc1C [Example 51, 4-[10-Chloro-7-(1-ethylpropyl)-2,3,4,5-tetrahydro-1H-[1,3]diazepino[1,2-a]benzimidazol-1-yl]-N,N,3-trimethylaniline] | < 1 | 174 to 175
8 | CCC(CC)c1ccc(Cl)c2nc3n(c12)CCCCN3c1ccc(C(F)(F)F)cc1Br [Example 38, 1-[2-Bromo-4-(trifluoromethyl)phenyl]-10-chloro-7-(1-ethylpropyl)-2,3,4,5-tetrahydro-1H-[1,3]diazepino[1,2-a]benzimidazole] | < 1 | 158 to 160
9 | CCC(CC)c1ccc(Cl)c2nc3n(c12)CCCCN3c1ccc(C)cc1C#N [Example 36, 2-[10-Chloro-7-(1-ethylpropyl)-2,3,4,5-tetrahydro-1H-[1,3]diazepino[1,2-a]benzimidazol-1-yl]-5-methylbenzonitrile] | < 1 | 176 to 180
10 | CCC(CC)c1ccc(Cl)c2nc3n(c12)CCCCN3c1ccc(OC(F)(F)F)cc1Br [Example 39, 1-[2-Bromo-4-(trifluoromethoxy)phenyl]-10-chloro-7-(1-ethylpropyl)-2,3,4,5-tetrahydro-1H-[1,3]diazepino[1,2-a]benzimidazole] | < 1 | 114 to 117
11 | COc1ccc(C(O)(C2CC2)C2CC2)c2c1nc1n2CCCN1c1ccc(Cl)cc1Cl [Example 369, Dicyclopropyl[1-(2,4-dichlorophenyl)-9-methoxy-1,2,3,4-tetrahydropyrimido[1,2-a]benzimidazol-6-yl]methanol] | < 1 | 219 to 220
12 | CCC(CC)c1ccc(Cl)c2nc3n(c12)CCCCN3c1ncc([N+](=O)[O-])cc1C [Example 64, 10-Chloro-7-(1-ethylpropyl)-1-(3-methyl-5-nitropyridin-2-yl)-2,3,4,5-tetrahydro-1H-[1,3]diazepino[1,2-a]benzimidazole] | < 1 | 204 to 205
13 | CCC(OC(C)=O)c1ccc(Cl)c2nc3n(c12)CCCCN3c1ccc(OC)cc1Cl (centres unmarked) [Example 334, 1-[10-Chloro-1-(2-chloro-4-methoxyphenyl)-2,3,4,5-tetrahydro-1H-[1,3]diazepino[1,2-a]benzimidazol-7-yl]propyl acetate] | < 1 | 177 to 179
14 | CCOc1nc(C)c(N2CCCn3c2nc2c(Cl)ccc(C(OC(F)F)C(F)(F)F)c23)c(C)n1 (centres unmarked) [Example 210, 9-Chloro-6-[1-(difluoromethoxy)-2,2,2-trifluoroethyl]-1-(2-ethoxy-4,6-dimethylpyrimidin-5-yl)-1,2,3,4-tetrahydropyrimido[1,2-a]benzimidazole] | < 1 | 218 to 220
15 | CCN(CC)c1cccc2nc3n(c12)CCCN3c1cnc(OC)nc1OC [Example 79, 1-(2,4-Dimethoxypyrimidin-5-yl)-N,N-diethyl-1,2,3,4-tetrahydropyrimido[1,2-a]benzimidazol-6-amine] | < 1 | 170 to 171
16 | CCC(F)c1ccc(Cl)c2nc3n(c12)CCCN3c1ccc(Cl)cc1Cl (centres unmarked) [Example 304, 9-Chloro-1-(2,4-dichlorophenyl)-6-(1-fluoropropyl)-1,2,3,4-tetrahydropyrimido[1,2-a]benzimidazole] | < 1 | 172 to 174
17 | CCOC(CC)c1ccc(Cl)c2nc3n(c12)CCCN3c1ccc(OC)nc1C (centres unmarked) [Example 269, 9-Chloro-6-(1-ethoxypropyl)-1-(6-methoxy-2-methylpyridin-3-yl)-1,2,3,4-tetrahydropyrimido[1,2-a]benzimidazole] | < 1 | 174 to 176
18 | COc1ccc(N2CCCn3c2nc2c(Cl)ccc(C(OCC(F)F)C4CC4)c23)c(C)n1 (centres unmarked) [Example 278, 9-Chloro-6-[cyclopropyl(2,2-difluoroethoxy)methyl]-1-(6-methoxy-2-methylpyridin-3-yl)-1,2,3,4-tetrahydropyrimido[1,2-a]benzimidazole] | < 1 | 124 to 126
19 | CCC(NCC(F)(F)F)c1ccc(Cl)c2nc3n(c12)CCCN3c1ccc(Cl)cc1Cl (centres unmarked) [Example 459, 1-[9-Chloro-1-(2,4-dichlorophenyl)-1,2,3,4-tetrahydropyrimido[1,2-a]benzimidazol-6-yl]-N-(2,2,2-trifluoroethyl)propan-1-amine] | < 1 | 133 to 135
20 | FC(F)(F)C(OC1CC1)c1ccc(Cl)c2nc3n(c12)CCCN3c1ccc(Cl)cc1Cl (centres unmarked) [Example 308, 9-Chloro-6-[1-(cyclopropyloxy)-2,2,2-trifluoroethyl]-1-(2,4-dichlorophenyl)-1,2,3,4-tetrahydropyrimido[1,2-a]benzimidazole] | < 1 | 197 to 200
21 | CCOC(c1ccc(Cl)c2nc3n(c12)CCCN3c1ccc(Cl)cc1Cl)C1CC1 (centres unmarked) [Example 483, 9-Chloro-6-[cyclopropyl(ethoxy)methyl]-1-(2,4-dichlorophenyl)-1,2,3,4-tetrahydropyrimido[1,2-a]benzimidazole] | < 1 | 138 to 140
22 | CCCC(OC)c1ccc(Cl)c2nc3n(c12)CCCN3c1ccc(Cl)cc1Cl (centres unmarked) [Example 118, 9-Chloro-1-(2,4-dichlorophenyl)-6-(1-methoxybutyl)-1,2,3,4-tetrahydropyrimido[1,2-a]benzimidazole] | < 1 | 139 to 140
